Columns and labels:
PPAR-γ = target: T1, PPAR-γ (Homo sapiens, UniProt P37231); assay: Scintillation Proximity Assay (SPA), displacement of 3H labeled darglitazone; type: binding; conditions: 3H darglitazone displacement, read-out: PPAR-gamma Ki
T1 sequence (P37231 1-505): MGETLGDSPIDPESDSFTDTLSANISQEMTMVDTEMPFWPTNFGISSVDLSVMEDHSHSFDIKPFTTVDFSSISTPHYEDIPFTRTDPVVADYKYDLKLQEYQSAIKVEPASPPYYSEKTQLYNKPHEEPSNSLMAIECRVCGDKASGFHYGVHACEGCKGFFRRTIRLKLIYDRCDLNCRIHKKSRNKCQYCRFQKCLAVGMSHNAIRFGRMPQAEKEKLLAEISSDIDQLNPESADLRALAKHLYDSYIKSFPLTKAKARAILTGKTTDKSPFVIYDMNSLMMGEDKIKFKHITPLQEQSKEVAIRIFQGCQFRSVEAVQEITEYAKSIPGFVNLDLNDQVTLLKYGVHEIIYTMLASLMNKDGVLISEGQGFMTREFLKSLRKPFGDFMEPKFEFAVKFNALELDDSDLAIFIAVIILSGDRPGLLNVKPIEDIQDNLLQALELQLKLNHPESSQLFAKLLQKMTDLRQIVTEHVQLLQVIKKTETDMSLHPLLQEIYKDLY
Description: (§1) Scintillatian Proximity Assay (SPA) Assays
(§2) In the SPA assay, 3H labeled darglitazone (for PPAR-γ) or GW2331 (for PPAR-α) is bound to the PPAR protein captured on SPA polylysine beads and generates radioactive count signal that can be detected by TopCounts (Packard). The PPAR-bound 3H labeled ligand can be displaced by an unlabeled compound. The Ki of the compound can be then determined by the extent of displacement at various compound concentrations. Reagents: • SPA polylysine beads, which can be purchased from Amersham Bioscience. • H labeled Darglitazone for PPAR-γ. • H labeled GW2331 for PPAR-α. • PPAR proteins. • Buffer—PBS, 10% glycerol, 14 mM beta-mercaptoethanol.

PPAR-α = target: T2, PPAR-α (Homo sapiens, UniProt Q07869); assay: Scintillation Proximity Assay (SPA), displacement of 3H labeled GW2331; type: binding; conditions: 3H GW2331 displacement, read-out: PPAR-alpha Ki
T2 sequence (Q07869 1-468): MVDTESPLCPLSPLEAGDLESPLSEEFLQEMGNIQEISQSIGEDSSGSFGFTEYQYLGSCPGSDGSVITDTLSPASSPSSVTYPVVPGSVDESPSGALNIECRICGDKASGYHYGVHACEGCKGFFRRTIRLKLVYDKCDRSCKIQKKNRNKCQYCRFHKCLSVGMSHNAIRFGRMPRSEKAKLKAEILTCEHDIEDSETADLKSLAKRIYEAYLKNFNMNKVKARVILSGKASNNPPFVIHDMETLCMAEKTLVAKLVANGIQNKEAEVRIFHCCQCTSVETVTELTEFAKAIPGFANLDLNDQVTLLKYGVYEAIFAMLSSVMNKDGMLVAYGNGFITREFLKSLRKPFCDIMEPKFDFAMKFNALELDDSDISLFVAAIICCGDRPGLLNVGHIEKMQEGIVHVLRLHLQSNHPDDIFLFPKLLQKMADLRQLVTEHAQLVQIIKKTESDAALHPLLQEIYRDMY
Description: as §1, §2

Row | Structure (SMILES) | Ki (PPAR-γ) | Ki (PPAR-α)
1 | Cc1oc(-c2ccccc2)nc1CCOC(=O)NCc1ccc(OC(C)(C)C(=O)O)cc1F [Example B-09] | 1900 nM | 2200 nM
2 | CC(C)(Oc1cccc(CNC(=O)OCc2cccc(Oc3ccccc3)c2)c1)C(=O)O [Example B-10] | 170 nM | 190 nM
3 | CCC(Oc1cccc(CNC(=O)OCc2ccc(OCc3ccccc3)cn2)c1)C(=O)O (centres unmarked) [Example B-11] | 7900 nM | 960 nM
4 | CCC(Oc1cccc(CNC(=O)OCc2nc(-c3ccccc3)oc2C)c1)C(=O)O (centres unmarked) [Example B-14] | 2300 nM | 21 nM
5 | Cc1oc(-c2ccccc2)nc1CCCOC(=O)NCc1cccc(OC2(C(=O)O)CCC2)c1 [Example B-16] | 1800 nM | 84 nM
6 | Cc1oc(-c2ccccc2)nc1CCCOC(=O)NCc1cccc(OC(C)(C)C(=O)O)c1 [Example B-19] | 740 nM | 340 nM
7 | Cc1oc(-c2ccccc2)nc1CCNC(=O)OCc1cccc(OC(C)(C)C(=O)O)c1 [Example B-21] | 990 nM | 4000 nM
8 | CCOC(Cc1cccc(CNC(=O)OCc2nc(-c3ccccc3)oc2C)c1)C(=O)O (centres unmarked) [Example B-22] | 150 nM | 460 nM
9 | CCOC(Cc1cccc(CNC(=O)OCCCc2nc(-c3ccccc3)oc2C)c1)C(=O)O (centres unmarked) [Example B-23] | 3400 nM | 2700 nM
10 | CCOC(Cc1cccc(CNC(=O)OCCc2nc(-c3ccccc3)oc2C)c1)C(=O)O (centres unmarked) [Example B-24] | 1600 nM | 1000 nM
11 | COc1ccc(-c2ccc(CCOc3ccc(CC4(C(=O)O)CCC4)cc3)cc2)cc1 [Example C-06, 1-{4-[2-(4′-methoxy-1,1′-biphenyl-4-yl)ethoxy]benzyl}cyclobutanecarboxylic acid] | 9500 nM | 41000 nM
12 | O=C(O)C1(Cc2ccc(OCCc3ccc(-c4ccc(F)cc4)cc3)cc2)CCC1 [Example C-07] | 11000 nM | 22000 nM
13 | O=C(O)C1(Cc2ccc(OCCc3ccc(-c4cccc(OC(F)(F)F)c4)cc3)cc2)CCC1 [Example C-09] | 1400 nM | 4600 nM
14 | COc1ccc(-c2ccc(CCOc3ccc(CC4(C(=O)O)CCC4)cc3)cc2)cn1 [Example C-10] | 2100 nM | 19000 nM
15 | CS(=O)(=O)c1ccc(-c2ccc(CCOc3ccc(CC4(C(=O)O)CCC4)cc3)cc2)cc1 [Example C-11] | 2000 nM | 25000 nM
16 | O=C(O)C1(Cc2ccc(OCCc3ccc(-c4ccc5c(c4)OCC5)cc3)cc2)CCC1 [Example C-12] | 1600 nM | 9400 nM
17 | Cc1oc(-c2ccccc2)nc1C/C=C/c1ccc(OC2(C(=O)O)CCC2)cc1 [Example C-14] | 8000 nM | 3200 nM
18 | Cc1oc(-c2ccccc2)nc1CCCc1ccc(OC2(C(=O)O)CCC2)cc1 [Example C-15] | 14000 nM | 3200 nM
19 | Cc1oc(-c2ccccc2)nc1COc1ccc(CC2(C(=O)O)CCC2)cc1 [Example C-17] | 26000 nM | 3200 nM
20 | Cc1oc(-c2ccccc2)nc1CCOc1cccc(CC2(C(=O)O)CCC2)c1 [Example C-18] | 3500 nM | 65 nM
21 | Cc1oc(-c2cccc(N(C)C)c2)nc1CCOc1ccc(CC2(C(=O)O)CCC2)cc1 [Example C-21] | 53 nM | 66 nM
22 | Cc1oc(-c2ccccc2C#N)nc1CCOc1ccc(CC2(C(=O)O)CCC2)cc1 [Example C-22] | 800 nM | 2100 nM
23 | Cc1oc(-c2ccc(C(N)=O)cc2)nc1CCOc1ccc(CC2(C(=O)O)CCC2)cc1 [Example C-23] | 190 nM | 2500 nM
24 | Cc1oc(-c2ccc(C(F)(F)F)c(F)c2)nc1CCOc1ccc(CC2(C(=O)O)CCC2)cc1 [Example C-24] | 83 nM | 22 nM
25 | Cc1oc(-c2ccc(Cl)c(Cl)c2)nc1CCOc1ccc(CC2(C(=O)O)CCC2)cc1 [Example C-25] | 66 nM | 18 nM
26 | Cc1ccc(-c2nc(CCOc3ccc(CC4(C(=O)O)CCC4)cc3)c(C)o2)cc1 [Example C-26] | 68 nM | 16 nM
27 | Cc1oc(-c2ccc(Cl)cc2)nc1CCOc1ccc(CC2(C(=O)O)CCC2)cc1 [Example C-27] | 26 nM | 15 nM
28 | COc1cccc(-c2nc(CCOc3ccc(CC4(C(=O)O)CCC4)cc3)c(C)o2)c1 [Example C-29] | 6 nM | 120 nM

— patent US20050234066A1, “Alpha substituted carboxylic acids” (Agouron Pharmaceuticals, Inc., priority 2004, published 2005)
